Measurements reported in patent US20220280507A1, “USES OF 5-METHYLTETRAHYDROFOLATE AND ITS COMPOSITION” (Lianyungang Jinkang Hexin Pharmaceutical Co., Ltd., priority 2019, published 2022).
Read-outs that look alike come from different tables or passages of the source.

Columns and labels:
[1] = system: liver injury induced by carbon tetrachloride; details: serum day 61, n=6
Method: Experiment 3 Protection of 5-Methyltetrahydrofolate Calcium on Liver Injury Induced by Carbon Tetrachloride
30 SPF-grade SD rats were chosen in half female and half male and randomly divided into vehicle control group (vegetable oil), model control group (1.5 ml·kg−1, 20% carbon tetrachloride vegetable oil solvent, intraperitoneal injection every 3 days), 5-methyltetrahydrofolate calcium low-dose group (1mg·Kg−1), 5-methyltetrahydrofolate calcium medium-dose group (2 mg·Kg−1), and 5-methyltetrahydrofolate calcium high-dose group (4 mg·Kg−1) according to their body weight. 20% carbon tetrachloride vegetable oil solvent was used as the inducer, and intraperitoneal injection was performed every 3 days for a total of 60 days. After successful modeling, the administration groups were given a dosage of 5-methyltetrahydrofolate calcium as prescribed above for gavage once a day, and the model group and the normal control group were gavaged once daily with purified water for 60 consecutive days. Blood was taken on the 61st day, and the levels of ALT and AST in serum were detected.

IL-1β = assay: LPS-induced inflammatory response in astrocytes, IL-1β release (ELISA); format: cell-based, Kunming mice; details: culture supernatant, LPS 1 μg·ml-1 + substance 10 μg·ml-1, 24 h, n=6
Text: Experiment 9 Inhibition of 5-Methyltetrahydrofolate and Curcumin on LPS-Induced Inflammatory Response in Astrocytes
The cerebral cortex of Kunming mice at 1˜2 d was taken out under aseptic conditions, washed 3 times with cold PBS after removing residual meninges and blood vessels, prepared into single cell suspension by blowing, centrifuged, the supernatant was discarded, and the precipitant was resuspended in AST basic medium (high-sugar DMEM containing 10% FBS). The suspension was inoculated into a culture flask coated with poly-L-lysine (0.1 mg/ml), and cultured in a CO2 incubator. After 24 h, tissue debris and non-adherent cells were removed by replacing the medium. Afterwards, the medium was replaced every 3 days until the cells reached 80% confluence, then the flask was placed on a constant temperature rotary shaker, where the suspension was centrifuged at 180 r/min, 37° C. for 18 h to remove oligodendrocytes and microglia from the upper layer. Then trypsin digestion was used for subculture. […]
LPS (1 μg·ml-1), LPS (1 μg·ml-1)+curcumin (10 μg·ml-1), LPS (1 μg·ml-1)+5-MTHF-Ca (10 μg·ml-1); experimental group: LPS (1 μg·ml-1)+curcumin (5 μg·ml-1)+5-MTHF-Ca (5 μg·ml-1). After 24 h, the culture supernatant was collected, and the cytokines IL-6, IL-1β and TNF-α were detected by ELISA.

[2] = system: alcoholic steatohepatitis; details: 4 mg·Kg−1 daily
Method: Experiment 12 Effect of 5-Methyltetrahydrofolate on Intestine Induced by Chronic Alcohol
(§1) 96 SPF-grade SD rats, half female and half male, were chosen with an average weight of 176-220 g at the beginning of the experiment, and randomly divided into vehicle control group (glucose, 10 g·Kg−1) and model control group (liquor, 6 g·Kg−1), 5-methyltetrahydrofolate calcium group (folic acid, 4 mg·Kg−1, glucose, 10 g·Kg−1), half female and half, 16 rats in each group. […] The day on which the dose of alcohol reached 6g·Kg−1 was defined as the first day of modeling. The intestinal permeability of rats was measured at Weeks 2 and 8, then 5 rats were sacrificed at random, blood and liver tissues were taken.
8 weeks later, rats in the remaining groups received fecal microbiota transplantation from patients with alcoholic steatohepatitis, and were sacrificed at Week 10, then blood and liver tissues were taken.
60 g of stools were collected from patients with alcoholic steatohepatitis, mixed with 300 mL of normal saline and filtered, and the bacteria solution was stored in an anaerobic bag at 4° C. for later use. After 8 weeks, the remaining rats in all groups were anesthetized with ether, and catheter was used to slowly inject the bacteria solution (2 mL) into their colon, and the rats continued to be fed with the same doses the next day. At Week 10, all rats were sacrificed, liver tissues were stained with H&E and sectioned for disease assessment. At least three different sections of each rat were studied to reasonably assess liver lesions. In order to reasonably assess fatty degeneration, necrosis, inflammation, and fibrosis of liver, liver lesions were graded into different degrees. The proportion of fatty liver cells was <50%, 50-75% and >75%, respectively, corresponding to the severity of fatty degeneration. Focal necrosis was also quantified (number of necrotic foci/mm2), and dense inflammatory infiltrates were also graded. Alcoholic steatohepatitis (ASH) is defined as the presence of inflammatory cell infiltration, spot necrosis and stem cell necrosis in the liver.

[3] = system: intestinal barrier function; details: chronic alcohol-fed rats, 4 mg·Kg−1
Method: as §1
An oral sugar test was carried out to evaluate intestinal permeability. After fasting for 8 h, the rats were given 2.0 ml of sugar solution,
with lactulose (107 mg/kg), mannitol (30 mg/kg), sucralose (15 mg/kg) and sucrose (570 mg/kg). The rats were individually housed in metabolic cages, and urine was collected. The sugar concentration in the urine was determined by gas chromatography. Blood samples were used to analyze endotoxin in serum with Kinetic-QLC kit.

[4] = 1 mg·kg−1·d−1 gavage 60 d after CCl4 modeling
[5] = 2 mg·kg−1·d−1 gavage 60 d after CCl4 modeling
[6] = 4 mg·kg−1·d−1 gavage 60 d after CCl4 modeling
[7] = Week 10 after fecal microbiota transplantation, n = 6

## 5-methyltetrahydrofolate calcium
[1]; [4]
  ALT: 54.64 ± 20.52 IU/L
  AST: 185.73 ± 63.46 IU/L
[1]; [5]
  ALT: 50.54 ± 20.12 IU/L
  AST: 156.97 ± 50.35 IU/L
[1]; [6]
  ALT: 40.84 ± 16.31 IU/L
  AST: 125.87 ± 43.84 IU/L
IL-1β
  IL-1β: 721.45 ± 8.79 pg/mL

## CN1c2c([nH]c(N)nc2=O)NCC1CNc1ccc(C(=O)N[C@@H](CCC(=O)O)C(=O)O)cc1 (stereo partly drawn) [5-methyltetrahydrofolate, N-[4-[[(2-amino-1,4,5,6,7,8-hexahydro-4-oxo-5-methyl-(6S), -(6R), and (6R,S)-pteridyl)methyl)amino)toluoyl-glutamic acid]
[2]; Week 8, n = 5
  Case percentage: fatty degeneration, percentage of fatty liver cells 50-75%: 20%
  Case percentage: fatty degeneration, percentage of fatty liver cells < 50%: 80%
  Case percentage: fatty degeneration, percentage of fatty liver cells > 75%: 0%
  Case percentage: inflammatory foci 1-4 pcs/mm^2: 0%
  Case percentage: inflammatory foci <1 pc/mm^2: 100%
  Case percentage: inflammatory foci >4 pcs/mm^2: 0%
  Case percentage: liver fibrosis: 0%
  Case percentage: necrosis foci 1-3 pcs/mm^2: 0%
  Case percentage: necrosis foci <1 pc/mm^2: 100%
  Case percentage: necrosis foci >3 pcs/mm^2: 0%
[2]; [7]
  Case percentage: fatty degeneration, percentage of fatty liver cells 50-75%: 33.3%
  Case percentage: fatty degeneration, percentage of fatty liver cells < 50%: 66.7%
  Case percentage: fatty degeneration, percentage of fatty liver cells > 75%: 0%
  Case percentage: inflammatory foci 1-4 pcs/mm^2: 0%
  Case percentage: inflammatory foci <1 pc/mm^2: 100%
  Case percentage: inflammatory foci >4 pcs/mm^2: 0%
  Case percentage: liver fibrosis: 0%
  Case percentage: necrosis foci 1-3 pcs/mm^2: 0%
  Case percentage: necrosis foci <1 pc/mm^2: 100%
  Case percentage: necrosis foci >3 pcs/mm^2: 0%
[3]
  Intestinal barrier function: can improve intestinal barrier function in the presence of alcohol
  Serum endotoxin level: reduce serum endotoxin level
